In patent publication US7189523B2, “Methods of identifying compounds that modulate IL-4 receptor-mediated IgE synthesis utilizing a B-cell associated protein” (Rigel Pharmaceuticals, Inc., priority 2002, dated 2007):

Assays:
human BAP-37 (hBAP-37) = molecular target: T1, human BAP-37 (hBAP-37) (Homo sapiens, UniProt Q99623); assay: β-galactosidase yeast two hybrid (YTH) interaction assay; assay type: binding; settings: peptide as bait
T1 construct: expressed in transfected cells; prey cDNA from a library of the A5T4 reporter line (BJAB human B-cells)
Protocol: Potential binding partners for peptide CL08wt (SEQ ID NO: 1) were identified in a β-galactosidase yeast two-hybrid (YTH) assay using peptide CL08wt (SEQ ID NO: 1) as bait and a cDNA library constructed from the A5T4 reporter cell line as prey. Binding was assessed by β-galactosidase quantification using BetaFluor (Novagen) as a substrate. A negative interaction control (no cDNA fused downstream of the GAL4 activation domain sequence) was also run. A general outline of the YTH assay is illustrated in FIG. 6A. Following clustering, filtering to remove non-specific bait hits (e.g., GFP and BFP), singletons and clusters recognized by 10 or more cDNA baits (based upon historical YTH assays), 7 prey clones were identified as hits.
Potential targets identified in the YTH assay were reconfirmed as generally outlined in FIG. 7. The cDNA clones identified as hits in the YTH assay were purified and rescreened for interaction with the CL08wt peptide in YTH assay. The hit clones were also screened in a control assay for interaction with the BFP using a vector (pGBKT7) that contained only the BFP and not the CL08wt peptide. At this stage, 7 putative target clones remained.
The interaction of CL08wt (SEQ ID NO: 1) peptide and its mutants with the clones identified as potential targets for the peptide CL08wt (SEQ ID NO: 1) was then quantified in a β-galactosidase YTH assay. The YTH assay was performed in the manner described above. A general outline of this YTH assay is illustrated in FIG. 6B. For each clone tested, an interaction profile was developed by comparing the β-galactosidase activity of each mutant to that of the wild type peptide, as described above.
The interaction of these N, IOF and ROF mutants with different polypeptides encoded by the putative target clones were quantified using the YTH assay described above. […]

[1] = system: IL-4 induced germline ε transcription (ε promoter reporter) in naïve A5T4 cells; assay: Re-infection (DNA transfer) assay in naïve A5T4 reporter cells; also used for the functional profile of the mutants; assay type: cell-based, human; settings: for functional category of the mutant compared to CL08wt: % change in reporter ratio calculated after subtracting 1.0 from the individual ratios; for Reporter Ratio: Table 2, CL08wt and mutants screened in the A5T4 reporter line
Protocol: The ability of peptide CL08wt (SEQ ID NO: 1) to inhibit germline ε transcription was confirmed in naïve cells. Briefly, Phoenix cells were transfected with a retroviral vector encoding a BFP-CL08wt peptide fusion as described in WO 99/58663 and WO 97/27213. Naïve A5T4 cells were infected with the resultant virions and grown for 3 days. The infected cells were stimulated with IL-4 (60 U/mL) and, after 3 days, the cells were assessed by FACS for BFP and GFP. […] The BFP fluorescence data corresponding to the BFP^+ and BFP^− populations are provided in Panel A. The GFP fluorescence data corresponding to the BFP^+ and BFP^− populations are presented in Panel B. The reporter ratio for this purpose is determined as the geometric mean of the GFP fluorescence of the BFP^− population divided by the geometric mean of the GFP fluorescence of the BFP^+ population. The reporter ratio for the CL08 in this re-infection assay was 1.39.
A collection of CL08 mutants was generated by replacing single or double amino acid residues in the sequence of CL08wt (SEQ ID NO: 1) with a different amino acid, typically an alanine, as described in copending application Ser. No. 10/095,659, entitled Methods of Identifying Protein Targets, filed Mar. 8, 2002. The functional profiles for the mutants derived from CL08wt (SEQ ID NO: 1) was obtained by constructing and screening for activity in the A5T4 reporter cell line in the manner described above. The activity of each mutant at the germline ε promoter is reflected in the reporter ratio, as described above. The reporter ratios were the functional values that were used to develop the functional profiles.
TABLE 2 depicts the amino acid sequences (the mutations are underlined) of the mutants tested and the measured reporter ratios when screening in the A5T4 reporter line.
Comparison of the interaction and functional profiles was performed by categorizing the mutants of CL08 based on the functional and interaction assays. Based on the reporter ratio, described in panel C of FIG. 5, each mutant was categorized into one of four functional categories: (1) reduction of function (ROF); (2) loss of function (LOF); (3) increase of function (IOF) or (4) functionally neutral (N), as compared to the activity of the wild type peptide, here CL08wt. As mentioned previously, cells expressing a peptide that inhibits germline ε transcription have reporter ratios of ≧1.1. Cells expressing a loss of function mutant have a reporter ratio of […]. […] Functionally neutral mutants have reporter ratios that fall within ±50% of that of the CL08wt (SEQ ID NO: 1) peptide. The % increase or decrease in reporter ratio is calculated after subtracting 1.0 from the individual ratios. […]

[2] = system: IL-4 induced germline ε transcription (ε promoter reporter) in A5T4 reporter cells; assay: A5T4 reporter line screening assay of library clones (HBEGF2a/GFP reporter, FACS); assay type: cell-based, human; settings: geometric mean GFP fluorescence, +IL-4/+Dox to +IL-4/−Dox populations; IL-4 60 U/mL, Dox 10 ng/ml; ≧1.1 = inhibition
From the text: Peptide CL08wt (SEQ ID NO: 1) was identified by screening a retroviral library of random peptide 20-mers for the ability to inhibit IL-4 induced germline ε transcription using the HBEGF2a/[…] dual reporter phenotypic screening system described in WO 01/31232. To construct the random library, A5T4 reporter cells (described in more detail below) were infected with an infectious retroviral library of random peptide 20-mers (prepared as described in WO 97/27213; see also WO 01/34806 at page 39, line 36 through page 40, line 19). The retroviral vector used includes a gene encoding blue fluorescent protein (BFP) fused upstream of the region encoding the random peptide via a linker region encoding an α-helical peptide linker (expression fusion product is referred to as “BFP-peptide”). Expression of the BFP-peptide product is controlled by a promoter sensitive to the tetracycline-regulated transactivator such that expression of the BFP-peptide is regulated by tetracycline (Tet) or doxycycline (Dox). See U.S. patent application Ser. No. 10/096,339 entitled “Methods and Compositions for Screening for Alter Cellular Phenotypes”, filed on Mar. 8, 2002. […]

[3] = system: ST486 endogenous α promoter; assay: TAQMAN assay of germline α transcription (selectivity); assay type: cell-based; settings: ST486 cells stimulated with TGF-β 40 ng/ml; average of 3 values; p=0.7371
Protocol: The assay was similar to that described in the immediately preceding section, except that ST486 cells (ATCC #CRL-1647) engineered to express the tetracycline-regulated transactivator were infected and the infected cells were stimulated with TGF-β (40 ng/ml; Peprotech). The primers and probe, which are specific for the transcription product driven by the ST486 endogenous α promoter, were as follows (the probe was labeled at the 5′-end with Fam and at the 3′-end with Tamra): […]

T1 sequence (Q99623 whole entry): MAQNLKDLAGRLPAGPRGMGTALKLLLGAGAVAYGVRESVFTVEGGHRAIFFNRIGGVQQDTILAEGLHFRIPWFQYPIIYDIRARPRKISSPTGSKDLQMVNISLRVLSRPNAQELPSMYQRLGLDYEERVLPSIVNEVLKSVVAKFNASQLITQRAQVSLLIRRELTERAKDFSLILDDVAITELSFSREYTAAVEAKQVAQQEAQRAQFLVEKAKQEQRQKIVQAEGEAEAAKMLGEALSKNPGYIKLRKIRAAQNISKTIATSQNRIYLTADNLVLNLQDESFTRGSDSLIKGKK

| Sequence | binding to human BAP-37 in yeast two hybrid interaction assay (human BAP-37 (hBAP-37)) | functional category of the mutant compared to CL08wt [1] | Reporter Ratio [1] | Reporter Ratio [2] | endogenous α inhibition ratio [3] |
| --- | --- | --- | --- | --- | --- |
| TGAAVELQINRSIMHYISSP (peptide encoded by synthetic oligomer) [CL08VH, double alanine mutant of CL08wt] | bind | ROF (a reduction of function of mutant (ROF) shows a >50% decrease in reporter ratio) | – | – | – |
| TGVHVAAQINRSIMHYISSP (peptide encoded by synthetic oligomer) [CL08EL, double alanine mutant of CL08wt] | – | – | 1.43 | – | – |
| TGVHVELQIAASIMHYISSP (peptide encoded by synthetic oligomer) [CL08NR, double alanine mutant of CL08wt] | bind | IOF (An increase of function mutant (IOF) shows a >50% increase in reporter ratio) | – | – | – |
| TGVHVELQINRSIMAAISSP (peptide encoded by synthetic oligomer) [CL08HY, double alanine mutant of CL08wt] | – | – | 1.54 | – | – |
| TGVHVELQINRSIMHYISSP (peptide encoded by synthetic oligomer) [CL08wt, 20-mer peptide from a random retroviral library, expressed as BFP-peptide fusion] | bind | – | – | 1.37 | 1.06 |
